From paper PMC7842926, “Synergistic effect and ultrastructural changes in Trypanosoma cruzi caused by isoobtusilactone A in short exposure of time” (PLoS ONE, 2021)
Like-named read-outs stand apart in the source and are kept apart here. Where a SMILES comes first, the peptide text is derived from it. The star is where a group is joined. Cbz = O=C(OCc1ccccc1)*

Experiments:
T. cruzi = conditions: cited from earlier work
[1] = test system: epimastigote forms of CL Brener (TcVI); test: Epimastigote cell viability assay (MTS/PMS), CL Brener; type: cell-based, Trypanosoma cruzi; conditions: for IC50: Trypanosoma cruzi, 4 h of treatment, read-out: IC50 epimastigotes strain CL Brener
Experimental: (§1) Epimastigote forms of three strains of T. cruzi, including Dm28c (TcI), CL Brener (TcVI), and Y strain (TcII), were maintained in liver infusion tryptose (LIT) medium supplemented with 10% fetal bovine serum at 28°C [16] were kindly provided by Oswaldo Cruz Institute/Fiocruz. For the experiments, exponential phase cultures were used. All assays were performed in triplicates in 96-well plates.
(§2) The absorbance of the formazan was measured at 490 nm using a microplate reader (Asys Expert Plus -Biochrom). In parallel, we determined the effect of 1% DMSO (negative control) and benznidazole (positive control) on the viability of epimastigotes and a replicate of each treatment was performed by fixing the epimastigotes with 4% paraformaldehyde prior to the addition of MTS/PMS (basal absorbance control).
(§3) The 50% cytotoxic concentration (CC50), x % inhibitory concentration (ICx = IC25, IC50, IC75, or IC90), and 50% lethal concentration (LC50) values were obtained from the percentage of inhibition/death versus log concentration of each compound, by nonlinear regression with variable slope and automatic withdrawal of outliers with ROUT coefficient (Q = 5). […] Graphpad Prism software version 7.04 was used for all regressions.

[2] = test system: amastigotes of T. cruzi (Dm28c); test: Antiproliferative assay on intracellular amastigotes in Vero host cells; type: cell-based, Trypanosoma cruzi; conditions: for IC50: Trypanosoma cruzi, Vero, 24 hours of treatment, confidence interval in brackets, read-out: Amastigotes (Dm28c) IC50 (CI)
Experimental: To determine the antiproliferative effect of butanolides on intracellular amastigote forms (Dm28c), Vero cells were used as host cells. Vero cells were cultured in DMEM and maintained in a CO2 atmosphere at 37°C.
After 4 h of incubation for adherence and infection, the cells were washed with 1x phosphate buffered saline (PBS) and then incubated in DMEM for 20 h to allow differentiation of internalized trypomastigotes into amastigotes.
Vero cells infected with amastigotes were incubated for 4 or 24 h with the compounds (4 concentrations within the range 4–200 μM) in DMEM. After incubation, the cells were washed, fixed in methanol, stained with 4',6-Diamidino-2-phenylindole (DAPI), and photographed using Leica DMI 6000-B fluorescence microscope. The photos obtained were analyzed using the software ImageJ version 1.5 for quantification of total Vero cells and determination of the percentage of infected cells and number of amastigotes per cell. The 50% inhibitory concentration (IC50) was calculated using the infectivity index (II) described by Ceole et al.. DMSO (1%) treatment served as negative control and benznidazole treatment served as positive control.
as §3

[3] = test system: epimastigote forms of Y strain (TcII); test: Epimastigote cell viability assay (MTS/PMS), Y strain; type: cell-based, Trypanosoma cruzi; conditions: for IC50: Trypanosoma cruzi, 4 h of treatment, read-out: IC50 epimastigotes strain Y
Experimental: as §1, §2, §3

Cytotoxicity assay (MTT) = type: cell-based; conditions: African green monkey (Cercopithecus aethiops), Vero cells (CCL-81); for CC50 at 4 h: 4 h of treatment, read-out: Vero cells (CCL-81) CC50 - 4h (CI); for CC50 at 24 h: 24 hours of treatment, confidence interval in brackets, read-out: Vero cells (CCL-81) CC50 (CI)
Experimental: Vero cells (CCL-81) isolated from the kidney of the African green monkey Cercopithecus aethiops were purchased from ATCC® (Washington DC, USA). The cells were inoculated in 200 μL of Dulbecco’s modified Eagle (DMEM) medium in 96-well plates at a concentration of 2 × 10^4 cells/well and incubated at 37°C for 24 h for adherence of the cells. Six different concentrations of the compounds (12 to 900 μM for butanolides, and 200 to 1,600 μM for benznidazole) were added to the wells. After 4 or 24 h of treatment, the cells were washed and cell viability was assessed using MTT (3-(4,5-Dimethylthiazol-2-yl)-2,5-Diphenyltetrazolium Bromide) assay (2 mg/mL). After 4 h of incubation at 37°C in a CO2 atmosphere, the wells were washed and 100% DMSO was added to solubilize the formazan crystals. The absorbance was measured at 570 nm using an ELISA plate reader (Biotek Model EL-800, VT, USA). DMSO (1%) treatment served as negative control and benznidazole treatment served as positive control.
as §3

[4] = test system: epimastigotes of T. cruzi (Dm28c, TcI); test: Epimastigote cell viability assay (MTS/PMS), Dm28c; type: cell-based, Trypanosoma cruzi; conditions: for IC50: Trypanosoma cruzi, read-out: Epimastigotes (Dm28c) IC50 - 4h (CI); for activity at concentrations below 50 μg/mL in epimastigotes: 72 h of treatment, Dm28c; for SI (selectivity index): Vero CC50 4 h versus epimastigote Dm28c IC50 4 h
Experimental: as §1
The effect of the isolated compounds on the viability of epimastigote forms of Dm28c strain was determined by MTS [3-(4,5-dimethylthiazol-2-yl)-5-(3-carboxymethoxyphenyl)-2-(4-sulfophenyl)-2H-tetrazolium bromide] with PMS (5-methyl-phenazinium methyl sulfate) colorimetric assay, as described by Nunes et al.. […]
as §2, §3

[5] = test system: epimastigotes of T. cruzi (Dm28c, TcI); design: method as in PMID 32327956; conditions: 24 h of treatment; read-out: IC50 epimastigote forms of Dm28c strain; cited from earlier work
Vero cells (CCL-81) = test system: Vero cells (CCL-81); design: method as in Nunes et al., 2020; conditions: 24 hours of treatment; confidence interval in brackets; ref Nunes et al., 2020; read-out: Vero cells (CCL-81) CC50 (CI); cited from earlier work
[6] = test system: amastigotes and trypomastigotes; test: Ultrastructural analysis by transmission and scanning electron microscopy; type: cell-based, Trypanosoma cruzi
Experimental: Trypomastigotes were incubated with isoobtusilactone A (LC50/4 h of trypomastigote) for 2 h. The parasites were washed with cacodylate buffer (0.1 M) and fixed in cacodylate buffer (0.1 M) containing paraformaldehyde (4%) and glutaraldehyde (2.5%). The cells were then adhered to glass cover slips previously coated with poly-L-lysine, postfixed with osmium tetroxide (1%), dehydrated with graded ethanol series, and dried using a critical point dryer (Leica CPD 300). Finally, the samples were coated with a layer of gold in a sputtering device (Leica EM ACE 200).
The cells were fixed, dehydrated, and dried following the same procedure described above. Cell membrane of the host cells was randomly removed with the aid of an adhesive tape and the resulting samples were coated with a layer of gold in a sputtering device (Leica EM ACE 200).
Trypomastigotes were treated following the same procedure as described for scanning microscopy. After treatment, the cells were washed with cacodylate buffer (0.1 M) and fixed in cacodylate buffer (0.1 M) containing paraformaldehyde (4%) and glutaraldehyde (2.5%).
All samples were postfixed in osmium tetroxide (1%), dehydrated with acetone series, and embedded in EMbed 812® resin. […]

[7] = test system: trypomastigotes infecting Vero cells; test: Infectivity assay (treatment before or during infection of Vero cells); type: cell-based, Trypanosoma cruzi
Experimental: The trypomastigotes were treated with isoobtusilactone A (LC50/4 h of trypomastigotes) for 4 h, while the control trypomastigotes were incubated with drug-free medium for 4 h. These trypomastigotes were then seeded into 96-well plates (4 × 10^4 parasites per well) with already adhered Vero cells at a ratio of 10 parasites per host cell.
After 20 h of infection, the infected Vero cell culture with intracellular amastigotes was fixed, stained with DAPI, photographed, and analyzed as described for antiproliferative assay.
Already adhered Vero cells were incubated with recently collected trypomastigotes for 4 h in a medium containing isoobtusilactone A (LC50/4 h of amastigotes) or in a drug-free medium (negative control). After 4 h, the host cells were washed and drug-free fresh medium was added. The cells were incubated for another 20 h and then fixed, stained, photographed, and analyzed as described above.

[8] = test system: trypomastigote forms of the parasite (Dm28c); test: microbe, parasite or virus in culture; type: cell-based; conditions: for LC50: Trypanosoma cruzi, 4 h of treatment, read-out: LC50 against trypomastigote forms (Dm28c); for SI (selectivity index): trypomastigotes Dm28c, 4 h, Vero cells
Experimental: Cell-derived trypomastigotes (Dm28c) were obtained from the supernatant of infected Vero cell cultures. Vero cells (9 × 10^5 cells/mL) and trypomastigotes were seeded at a ratio of 1:10 into culture bottles (75 cm^2) containing DMEM. After 4 h of incubation, the bottles were washed to remove unadhered trypomastigotes and incubated for another 96 h under CO2 atmosphere at 37°C. After 96 h of incubation, new trypomastigote forms were collected from the supernatant and used to perform the assays.
The lysis assay was performed in 96-well plates in technical triplicates (4 concentrations within the range 4–250 μM for butanolides and 200–1,600 μM for benznidazole), and the trypomastigotes (1 x 10^6 parasites/well) were incubated in 200 μL of DMEM (supplemented with 10% FBS, 100 μg/mL streptomycin, and 100 IU/mL penicillin) with the compounds at 37°C for 4 h. The test, negative control (1% DMSO), and positive control (benznidazole) parasites were fixed and counted in Neubauer's chamber.
as §3

[9] = test system: epimastigote forms of strain Dm28c; test: Inhibition of metacyclogenesis; type: cell-based; conditions: Trypanosoma cruzi, 2 h exposure, then 72 h in drug-free medium, p = 0.009, read-out: less trypomastigotes than control (inhibition of metacyclogenesis)
Experimental: After the stress, the cells were washed and incubated with TAU drug-free supplemented with 10 mM L-proline, 50 mM L-sodium glutamate, 2 mM L-sodium aspartate and 10 mM D-glucose (TAU3AAG medium) for 72 h. The total number of differentiated trypomastigotes was counted in Neubauer's chamber to assess the inhibition percentage.

Hep G2 cells = test system: Hep G2 cells; design: method as in PMID 22400995, PMID 18489163, PMID 17321026; conditions: cited from earlier work
[10] = test system: amastigotes of T. cruzi (Dm28c); design: method as in PMID 32327956; conditions: 24 h of treatment; cited from earlier work
amastigote forms = conditions: longer treatment periods; read-out: activity against amastigote forms; cited from earlier work
trypomastigotes [11] = conditions: period of treatment 24 h; read-out: IC50 against trypomastigotes; cited from earlier work
trypomastigotes [12] = conditions: concentration greater than 40 μM, exposure time of 18 hours; cited from earlier work
[13] = Vero CC50 versus amastigote IC50, 24 hours
[14] = 4 h of treatment, Na = not active
[15] = treatment simultaneous to the infection, LC50/4 h of amastigote (20.75 μM)
[16] = trypomastigotes treated before infection, LC50/4 h of trypomastigote

CC(C)=CCCC(C)=CC=O (mixture of isomers) [Citral]
inhibition of metacyclogenesis (T. cruzi; 30 μg/mL): 54%

O=C(Cn1ccnc1[N+](=O)[O-])NCc1ccccc1 [Benznidazole, benznidazole, reference compound]
IC50 [1]: > 1600 µM | IC50 [2]: 6.57 µM | SI (selectivity index) [2, 13]: 174 | IC50 [3]: > 1600 µM | CC50 at 4 h (Cytotoxicity assay (MTT)): > 1600 µM | CC50 at 24 h (Cytotoxicity assay (MTT)): 1140 µM | IC50 [4, 14]: > 1600 µM

CCCCCCCCCCCCC/C=C1\C(=O)O[C@@H](C)[C@H]1O [Epilitsenolide C1, epilitsenolide C1]
IC50 [5]: 7.77 µM | Epimastigotes (Dm28c) IC50 - 4h (CI) [4, 14]: did not show activity | activity at concentrations below 50 μg/mL in epimastigotes [4]: exhibited activity

C=C1OC(=O)/C(=C/CCCCCCCCCCCCC)[C@@H]1O [Isoobtusilactone A, isoobtusilactone A]
CC50 (Vero cells (CCL-81)): 156 µM | IC50 [1]: 61.7 µM | SI (selectivity index) ([1]; epimastigotes strain CL Brener, 4 h, Vero cells): 6.0 | ultrastructure of treated intracellular amastigotes (TEM) ([6]; LC50/4 h of amastigotes, 4 h): strong and acute damage to the unique mitochondria | ultrastructure of treated trypomastigotes (TEM) ([6]; LC50/4 h of trypomastigote, 2 h): swelling and loss of internal content of mitochondria | reduction in the number of amastigotes per cell [7, 15]: 65% | reduction in the number of infected cells [7, 15]: 43% | reduction in the number of amastigotes per cell [7, 16]: ~40% | reduction in the number of infected cells [7, 16]: 20% | IC50 [2]: 23 µM | SI (selectivity index) [2, 13]: 6.81 | SI (selectivity index) ([2]; amastigotes, 4 h, Vero cells): 17.88 | IC50 [3]: 32.3 µM | SI (selectivity index) ([3]; epimastigotes strain Y, 4 h, Vero cells): 11.4 | LC50 [8]: 30.1 µM | SI (selectivity index) [8]: 12.34 | CC50 at 4 h (Cytotoxicity assay (MTT)): 371 µM | inhibition at 2.75 µM [9]: 43% | effect on tumor cells (Hep G2 cells): inducing apoptosis | activity at concentrations below 50 μg/mL in epimastigotes [4]: exhibited activity | IC50 [4, 14]: 10.1 µM | SI (selectivity index) [4]: 36.7 | inhibition of growth of amastigote forms [10]: more than 70%

CC(C)[C@H](NC(=O)OCc1ccccc1)C(=O)N[C@H](C=O)Cc1ccccc1 [MDL28170] (Cbz-Val-Phe-aldehyde)
inhibition of differentiation (T. cruzi; 50 μM, 96-hour treatment): ~50%

CCCCCCCCCCCCC/C=C1\CC(CO)OC1=O (stereo not drawn) [Majoranolide, majoranolide]
IC50 [2]: 21.9 µM | SI (selectivity index) [2, 13]: 7.57 | LC50 [8]: 71.7 µM | SI (selectivity index) [8]: 7.77 | CC50 at 4 h (Cytotoxicity assay (MTT)): 558 µM | CC50 at 24 h (Cytotoxicity assay (MTT)): 166 µM | activity at concentrations below 50 μg/mL in epimastigotes [4]: exhibited activity | IC50 [4, 14]: > 250 µM | SI (selectivity index) [4]: 0.94

C=C1OC(=O)/C(=C\CCCCCCCCCCCCCCC)[C@H]1O [isolinderanolide E]
IC50 (amastigote forms): 10.1 µM | IC50 (trypomastigotes [11]): 29.9 µM

Oc1ccc(/C=C/c2cc(O)cc(O)c2)cc1 [resveratrol]
reduction of infection (trypomastigotes [12]): by half

CCCCCCCCCCCCCCC/C=C(/C(=O)OC)[C@H](O)C(C)=O [secosubamolide A]
IC50 (amastigote forms): 12.3 µM | IC50 (trypomastigotes [11]): 12.5 µM

isolinderanolide D
IC50 (amastigote forms): 25.3 µM | IC50 (trypomastigotes [11]): 12.9 µM
